Columns and labels:
[1] = system: SARS-CoV-2 virus [B.1.351]; format: in vivo, mice; conditions: Hypericin 20 mg/kg alone, pre-treatment from two days prior to infection; day 4 post-infection
SARS-CoV-2 = assay: CellTiter-Glo host cell viability assay of SARS-CoV-2-infected Vero E6 cells; format: cell-based; conditions: for host cell viability: hypericin 0 μM
Procedure: Vero E6 cells were seeded at 25,000 cells/well in 96-well plates and SARS-CoV-2 was added into the wells at a MOI of 0.01. After 1 hour, hypericin (Cayman Chemical, ≥95% purity) was added into the wells at final concentrations of 1.5625-100 μM or the vehicle only control (DMSO), followed by the addition of remdesivir (Novation Chemicals, 98% purity) at final concentrations of 0.3125-5 μM or the vehicle only control (DMSO), and incubated at 37° C.
After 72 hours of incubation, host cell viability was assessed using CellTiter-Glo® Luminescent Cell Viability Assay (Promega) according to the manufacturer's instructions. Results were normalized to the highest dose of remdesivir alone (5 μM) and are summarized below in Table 1.

| SMILES | mice in which all infectious titers were eliminated [1] | viability at 1.563 µM (SARS-CoV-2; Severe acute respiratory syndrome coronavirus 2, Vero C1008, hypericin 1.563 μM, remdesivir 0 μM, 72 h, normalized to remdesivir 5 μM alone) [%] | viability at 3.125 µM (SARS-CoV-2; Severe acute respiratory syndrome coronavirus 2, Vero C1008, hypericin 3.125 μM, remdesivir 0 μM, 72 h, normalized to remdesivir 5 μM alone) [%] | viability at 6.25 µM (SARS-CoV-2; Severe acute respiratory syndrome coronavirus 2, Vero C1008, hypericin 6.25 μM, remdesivir 0 μM, 72 h, normalized to remdesivir 5 μM alone) [%] | viability at 12.5 µM (SARS-CoV-2; Severe acute respiratory syndrome coronavirus 2, Vero C1008, hypericin 12.5 μM, remdesivir 0 μM, 72 h, normalized to remdesivir 5 μM alone) [%] | viability at 25 µM (SARS-CoV-2; Severe acute respiratory syndrome coronavirus 2, Vero C1008, hypericin 25 μM, remdesivir 0 μM, 72 h, normalized to remdesivir 5 μM alone) [%] | viability at 50 µM (SARS-CoV-2; Severe acute respiratory syndrome coronavirus 2, Vero C1008, hypericin 50 μM, remdesivir 0 μM, 72 h, normalized to remdesivir 5 μM alone) [%] | viability at 100 µM (SARS-CoV-2; Severe acute respiratory syndrome coronavirus 2, Vero C1008, hypericin 100 μM, remdesivir 0 μM, 72 h, normalized to remdesivir 5 μM alone) [%] | viability at 50 µM (SARS-CoV-2; Severe acute respiratory syndrome coronavirus 2, Vero C1008, hypericin alone (12.5-100 μM), up to, at 50 μM) [%] | effect on host cell viability in words (SARS-CoV-2; hypericin (25-50 μM) alone) | host cell viability (SARS-CoV-2; remdesivir 0.3125 μM, 72 h, normalized to remdesivir 5 μM alone) [%] | host cell viability (SARS-CoV-2; remdesivir 0.625 μM, 72 h, normalized to remdesivir 5 μM alone) [%] | host cell viability (SARS-CoV-2; remdesivir 1.25 μM, 72 h, normalized to remdesivir 5 μM alone) [%] | host cell viability (SARS-CoV-2; remdesivir 2.5 μM, 72 h, normalized to remdesivir 5 μM alone) [%] |
| --- | --- | --- | --- | --- | --- | --- | --- | --- | --- | --- | --- | --- | --- | --- |
| Cc1cc(O)c2c(=O)c3c(O)cc(O)c4c5c(O)cc(O)c6c(=O)c7c(O)cc(C)c8c1c2c(c34)c(c78)c65 [Hypericin] | 5 out of 7 | 14.6 | 12.9 | 12.8 | 20.4 | 62 | 62.6 | 38 | ≤ 62 | modest improvements in host cell viability | – | – | – | – |
| CCC(CC)COC(=O)[C@H](C)N[P@](=O)(OC[C@H]1O[C@@](C#N)(c2ccc3c(N)ncnn23)[C@H](O)[C@@H]1O)Oc1ccccc1 [Remdesivir, remdesivir, reference compound] | – | – | – | – | – | – | – | – | – | – | 19.8 | 21.9 | 25.2 | 38.1 |
